In patent US4692433A, “Method and composition for regulating serum calcium levels of mammals” (The Regents of the University of California, priority 1985, dated 1987):

How the values were obtained:
fasted normal rats = assay: Serum calcium change after oral administration of salmon calcitonin preparations; format: in vivo, rat
Procedure: (§1) The polypeptide hormone is incorporated into the liposome as follows: the phospholipid components are dissolved in an organic solvent such as chloroform. The solvent is then removed to produce a lipid film. A buffer solution containing the polypeptide hormone is then added and mixed to form a suspension of the phospholipid film and polypeptide hormone. The suspension is then sonicated to form the liposome-entrapped polypeptide hormone. The suspension is then centrifuged at 120,000 times g for 16 hours to obtain a pellet consisting of liposome-entrapped hormone while the supernatant contains the unentrapped hormone. The liposomes in the pellet are then taken up in a small amount of buffer and subsequently used to influence calcium homestasis by oral administration.
Purified salmon and human calcitonin or human parathyroid hormone (1-34 amino acid fragment) were incorporated into liposomes consisting of natural or synthetic phospholipids and positively-charged amine-containingamphiphile. Liposomes containing the entrapped hormones were isolated by centrifugation, resuspended in buffer and administered by stomach tube to fasted normal rats (calcitonin) or fasted parathyroidectomized rats (parathyroid hormone). The serum calcium was determined at various time intervals in treated and untreated animals to assess the effect of the respective preparations. […]

[1] = test system: fasted parathyroidectomized rats; assay: Serum calcium change after oral administration of PTH preparations by stomach tube; format: in vivo, rat
Procedure: as §1
Purified salmon and human calcitonin or human parathyroid hormone (1-34 amino acid fragment) were incorporated into liposomes consisting of natural or synthetic phospholipids and positively-charged amine-containingamphiphile. Liposomes containing the entrapped hormones were isolated by centrifugation, resuspended in buffer and administered by stomach tube to fasted normal rats (calcitonin) or fasted parathyroidectomized rats (parathyroid hormone). The serum calcium was determined at various time intervals in treated and untreated animals to assess the effect of the respective preparations.
450 micromoles of egg phosphatidylcholine (ePC) and 50 micromoles of stearylamine (SA) were dissolved in 2 to 3 ml of anhydrous chloroform placed in a 30 ml glass stopper tube and the solvent was removed in vacuo. To the thin film of lipid remaining on the wall of the tube was added 5.0 ml of buffer (20 mM NaCl containing 5 mM Tris, pH 7.4) containing 1 mg human PTH (hPTH 1-34) and 1×10^6 CPM of I^125 -human PTH tracer (hPTH 1-34). The buffer was mixed at room temperature for 5 minutes using a vortex mixer.
After vortexing the mixture was sonicated for 3 minutes at room temperature using the cuphorn of a Heat Systems Ultrasonics sonicator at maximal output. […]

Compound | enhancement of the calcitonin effect on serum calcium by additive (in words) (fasted normal rats) | Change in serum Ca2+ ([1]; Table 2: oral, 40 μg, after 2 hr, triplicate, mean ± Std. error of mean) | Change in serum Ca2+ ([1]; Table 3: 2 hours after oral administration to rats, 40 μg PTH, values marked (3) are triplicate mean ± Std. error of mean) | effect on serum calcium (in words) ([1]; oral administration to rats, equivalent dose)
CC(=O)Oc1ccccc1C(=O)O [aspirin] | enhances slightly the effect of free CT |  |  | 
Free PTH: free human parathyroid hormone, 1-34 amino acid fragment, given orally (SVSEIQLMHNLGKHLNSMERVEWLRKKLQDVHNF; Parathyroid hormone; UniProt P01270 32-65, looked up, fragment) |  | +0.08 0.25 mg/dl | -0.05 mg/dL | no effect
